How the values were obtained:
[1] = Diet-derived sedoheptulose uptake in humans (serum GC-MS before/after carrot meal); type: in vivo, human; conditions: two hours after meal of mainly steamed carrots (~700 g) vs overnight fasted, n=4
From the text: Fresh carrots with an Austrian “organic-certificate” were sliced into small pieces and snap-frozen in liquid nitrogen. The same procedure was applied to leaves freshly harvested from indoor-grown Sedum Spectabile plants. Three samples of each tissue were pooled and homogenized to powder by glass-beads. The carbohydrate rich fractions of the samples were isolated by 20% H2O and 80% MeOH extraction solution spiked with 13C standards and processed for standard gas-chromatography coupled to mass spectrometry (GC-MS). Glucose and sedoheptulose were identified by their individual masses and their relative amount was derived from the peak area of each individual analyte normalized to 13C content. Glucose and sedoheptulose were also measured in equal volumes of serum from overnight fasted or carrot fed individuals. The carrots were steamed and some olive-oil, salt and pepper were used for flavour. Two hours before and two hours after the carrot containing meal human serum was prepared in VACUETTE® Z Serum Sep tubes from blood. Serum samples were processed as previously described and also analyzed by GC-MS as detailed above and in Ruiz-Matute A I et al., Chromatogr B Analyt Technol Biomed Life Sci. (2011) May 15 879(17-18).

primary human adipocytes [2] = assay: mRNA expression (RT-PCR) in primary human adipocytes differentiated in GF or GFS media; type: cell-based; conditions: GFS (1 g/L each sugar) vs GF (1.5 g/L each), eight days differentiation
Method: Stromal vascular fraction cells (SVFs) from subcutaneous white adipose tissue of a patient undergoing abdominal surgery were isolated as described before (Lindroos et al, Cell Metab. (2013), Jul. 2; 18(1):62-74.). Briefly, adipose tissue was digested with Collagenase II (Worthington) and filtered. SVFs were separated from mature adipocytes by centrifugation, followed by the lysis of erythrocytes in the SVF-fraction (Buffer EL, Qiagen). The purified SVFs were cultured in DMEM/F12, 10% FBS (Gibco, Life Technologies). […] Two days after confluence (day 0), differentiation was induced by adding 1 μM dexamethasone, 1.74 μM insulin, 5 μM troglitazone, […], 17 μM pantothenic acid and 33 μM biotin. After two days, IBMX and dexamethasone were omitted, while insulin and troglitazone were removed on day 4. 50% of the medium was replaced on day 6. Two days later, the cells were harvested for RNA isolation (RNeasy mini kit, Qiagen). Briefly, total RNA was extracted and reverse-transcribed using commercial kits (QIAGEN, Applied Biosystems). Quantitative real-time PCRs were performed on an […] real-time cycler using iTaq SYBR Green Supermix with ROX (BioRad) to measure CARKL, adiponectin, UCP-1, TNFa, IL-6, MCP-1, and beta-actin expression as previously described ([…] et al., Cell Metab. 15 (2012), 813-826). […] Relative expression of target gene was calculated by the delta-delta CT method.

primary human adipocytes [3] = assay: Oxygen consumption rate and extracellular acidification rate (XF-Analyzer) in primary human adipocytes; type: cell-based; conditions: human adipocytes differentiated and cultured in sedoheptulose containing media vs controls
Method: Stromal vascular fraction cells (SVFs) from subcutaneous white adipose tissue of a patient undergoing abdominal surgery were isolated as described before (Lindroos et al, Cell Metab. (2013), Jul. 2; 18(1):62-74.). Briefly, adipose tissue was digested with Collagenase II (Worthington) and filtered. SVFs were separated from mature adipocytes by centrifugation, followed by the lysis of erythrocytes in the SVF-fraction (Buffer EL, Qiagen). The purified SVFs were cultured in DMEM/F12, 10% FBS (Gibco, Life Technologies). As soon as the cells reached confluence, they were washed with DMEM/F12 w/o glucose (Biowest) and the medium was replaced by DMEM/F12 with a total carbohydrate load of 3 g/L, containing 1.5 g/L glucose and fructose or 1 g/L each of glucose, fructose, and sedoheptulose, respectively. […]
(§1) The XF-Analyzer (Seahorse Bio.) was used to measure changes in cellular metabolism induced by different carbohydrates. Extracellular acidification rates (ECAR, mpH/min) and oxygen consumption rates (OCR, pmoles/min) were recorded in primary human adipocytes and primary murine hepatocytes according to the manufacture instructions. […] Changes induced by the different carbohydrate sources were expressed as relative change in % to illustrate the effect of each carbon source.

mature murine adipocytes = assay: Cytokine mRNA expression in mature murine adipocytes (ceiling culture) in GF or GFS media; type: cell-based, mouse; conditions: three days in sedoheptulose containing media vs glucose and fructose alone
Method: Anterior and posterior subcutaneous adipose tissue and epididymal white adipose tissue was isolated from transgenic CARKL-mice and wild-type littermate controls. Adipose tissue was digested as described above for the human sample. After centrifugation, the layer of floating mature adipocytes was removed and re-centrifuged at 100 rcf for 10 minutes. 150 μL of packed adipocytes were cultured under a floating coverslip in six-well plates, in DMEM/F12, 15% calf serum (PAA). 24 hours after isolation, the wells were washed twice with PBS and the medium was exchanged to DMEM/F12 with a total carbohydrate load of 3 g/L, containing 1.5 g/L glucose and fructose, or 1 g/L each of glucose, fructose and sedoheptulose, respectively. Three days later, the cells were harvested for RNA isolation using TRIreagent (Sigma).
(§2) Briefly, total RNA was extracted and reverse-transcribed using commercial kits (QIAGEN, Applied Biosystems). Quantitative real-time PCRs were performed on an AbiPRISM 7900HT real-time cycler using iTaq SYBR Green Supermix with ROX (BioRad) to measure CARKL, adiponectin, UCP-1, TNFa, IL-6, MCP-1, and beta-actin expression as previously described (Haschemi et al., Cell Metab. 15 (2012), 813-826). Expression of target gene was normalized to beta-actin expression. Relative expression of target gene was calculated by the delta-delta CT method.

[4] = system: primary murine hepatocytes; assay: IL-6 mRNA expression in primary murine hepatocytes in GF or GFS media; type: cell-based, mouse; conditions: hepatocytes pre-cultured two days with sedoheptulose (GFS) vs GF
Method: (§3) Hepatocytes were isolated from male wild-type and CARKL overexpressing mice after the mice were sacrificed by hepatic in situ collagenase perfusion. After perfusion, the liver was quickly removed, minced, and filtered through a cell strainer (Fisher Scientific, Inc) into a 50 ml sterile tube. Hepatocytes in the resulting filtrate were purified from the nonparenchymal cells by centrifugation steps. The isolated hepatocytes were seeded into plates at a concentration of 0.25×10^6/ml in respective DMEM-media containing 10% FBS and indicated carbohydrate mixes at 3 g/L (glucose and fructose (GF), or glucose, fructose and sedoheptulose (GFS)) at least two days before experiments were performed.
as §2

[5] = system: primary bone marrow derived macrophages; assay: Basal cytokine mRNA expression in primary bone marrow derived macrophages in GF or GFS media; type: cell-based, mouse; conditions: pre-cultured two days in GFS vs GF media
Method: (§4) Mouse bones were isolated from male wild-type and CARKL overexpressing mice and bone marrow wash flushed, washed and cleared from red blood cells by lysis, and subsequently differentiated in DMEM containing 25 mM glucose and 20 ng/ml M-CSF. After 4 days, cells for osteoclast differentiation were harvested and seeded in corning osteo assay plates with differentiation media (see below), and for primary bone marrow derived macrophages (BMDM) the medium was renewed and further supplemented with M-SCF for two days. Differentiated BMDM were then seeded in respective DMEM-media containing 10% FBS and indicated carbohydrate mixes at 3 g/L (glucose and fructose (GF), or glucose, fructose and sedoheptulose (GFS)) at least two days before experiments were performed.
as §2

[6] = system: bone marrow derived macrophages; assay: Cytokine secretion (ELISA) by bone marrow derived macrophages, basal and LPS-induced; type: cell-based, mouse; conditions: ELISA of supernatant over two days, GFS vs GF media
Method: as §4

[7] = system: sedoheptulose kinase (CARKL); assay: Sedoheptulose kinase assay (ADP Quest, ADP formation); type: biochemical; conditions: constant amount of recombinant CARKL, constant ATP 150 μM, increased doses of sedoheptulose
From the text: The ADP Quest Assay (DiscoveRx) was used to indirectly measure […] formation by ADP accumulation over time according to the manufacture instructions. Recombinant sedoheptulose kinase was previously produced in E. coli and purified by affinity purification ([…] et al., Cell Metab. 15 (2012), 813-826).

WT hepatocytes = assay: Glucose-induced ECAR in primary hepatocytes; type: cell-based, mouse; conditions: WT hepatocytes in GFS vs GF media, 1 hr carbohydrate starvation, then glucose 1 g/L
Method: as §3
as §1, with “instructions. Briefly, cells were seeded in seahorse cell plates at a density of 10^4 cells per well for adipocytes and 0.5×10^5 cells per well for hepatocytes.” for “instructions.”

[8] = target: T1, Glucose-6-phosphate dehydrogenase (G6PD) (Mus musculus, UniProt Q00612); assay: Glucose-6-phosphate dehydrogenase activity assay (enzyme histochemistry) in hepatocytes; type: cell-based; conditions: WT cells incubated in cell culture media with sedoheptulose; data not shown
T1 construct: Hepatocytes were isolated from male wild-type and CARKL overexpressing mice; endogenous in cells; host or cells: primary mouse hepatocytes (WT and CARKL-transgenic)
T1 sequence (Q00612 whole entry): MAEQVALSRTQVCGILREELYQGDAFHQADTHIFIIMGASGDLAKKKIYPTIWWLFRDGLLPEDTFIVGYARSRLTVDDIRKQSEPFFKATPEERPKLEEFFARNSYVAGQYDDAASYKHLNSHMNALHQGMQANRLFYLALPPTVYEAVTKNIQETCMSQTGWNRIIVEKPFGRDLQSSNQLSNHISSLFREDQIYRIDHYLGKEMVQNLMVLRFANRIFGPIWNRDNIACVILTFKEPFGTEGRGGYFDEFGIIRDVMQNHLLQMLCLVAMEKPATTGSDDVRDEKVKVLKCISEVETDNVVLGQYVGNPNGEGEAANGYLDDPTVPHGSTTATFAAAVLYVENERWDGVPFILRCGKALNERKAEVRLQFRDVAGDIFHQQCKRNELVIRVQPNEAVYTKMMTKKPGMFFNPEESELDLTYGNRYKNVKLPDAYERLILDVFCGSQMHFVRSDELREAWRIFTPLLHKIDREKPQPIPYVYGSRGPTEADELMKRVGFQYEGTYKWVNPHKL
Method: as §3
Cells were grown on polystyrene vessel tissue culture treated glass slides, snap frozen in liquid nitrogen and kept at −80° C. The enzyme histochemical procedure was based on the tetrazolium salt method as described by Van Noorden and Frederiks. […] The medium was freshly prepared immediately before incubation. Control reactions additionally contained 40 mM glucosamine-6-phosphate. Cells were incubated at room temperature for 15 minutes under continuous mixing by orbital shaker. After incubation, cells were washed 3×5 minutes in 60° C. phosphate buffered saline, dried, and mounted in glycerol gelatin, and photographed within one day at ×10 magnification.

osteoclasts = assay: In vitro bone resorption assay (osteoclast pit formation); type: cell-based, mouse
Method: as §4, with “performed. Osteoclast precursor cells (bone marrow cells treated with 20 ng/ml M-CSF for 4 days) were plated in 24-well Corning Osteo Assay plate in the presence of 10 ng/ml M-CSF and 100 ng/ml RANKL in alpha-MEM medium containing 10% FBS and 3 g/L either glucose and fructose (GF), or glucose, fructose, and sedoheptulose (GFS). The Medium was renewed every third day. […] Each well was entirely photographed by TissueFax with an ×20 objective and all visible resorption pits were counted and analysed blinded.” for “performed.”

increase in sedoheptulose serum levels [1]: approximately two-fold
sedoheptulose kinase CARKL mRNA expression (primary human adipocytes [2]): increase
sedoheptulose turnover rate (ADP formation) [7]: enhanced
G6PD activity distribution (re-localization of G6PD and reduced activity in the inner space of the cells, as in CARKL overexpressing cells) [8]: same phenotype was achieved
Structure (SMILES): O=C(CO)[C@@H](O)[C@H](O)[C@H](O)[C@H](O)CO [sedoheptulose, Sedoheptulose]
cellular oxygen consumption rate (OCR) (primary human adipocytes [3]): increased
extracellular acidification rate (ECAR) (primary human adipocytes [3]): comparable
IL-6 mRNA (mature murine adipocytes): less
TNFa mRNA (mature murine adipocytes): less
IL-6 expression [4]: less
basal IL-6 mRNA expression [5]: blocked
basal TNFa mRNA expression [5]: blocked
basal IL-6 secretion [6]: blocked
basal TNFa secretion [6]: blocked
glucose-induced ECAR (WT hepatocytes): reduced
pit formation by osteoclasts (osteoclasts; 7 days in GFS vs GF media, Corning Osteo Assay plates): reduced
larger resorption-pits (osteoclasts; WT osteoclasts cultured in GF or GFS media): found only in the absence of sedoheptulose
